From US11584763B2, “Chromenopyridine derivatives as phosphatidylinositol phosphate kinase inhibitors” (HIBERCELL, INC., priority 2017, dated 2023)

How the values were obtained:
PIP4K 2A = target: T1, PIP4K 2A (Homo sapiens, UniProt P48426); assay: ADP-glo kinase assay PIP4K 2A; type: biochemical; design: 4 nM PIP4K2A (full length protein, SignalChem); purchased SignalChem; settings: compounds listed under IC50 bin headings
T1 sequence (P48426 1-406): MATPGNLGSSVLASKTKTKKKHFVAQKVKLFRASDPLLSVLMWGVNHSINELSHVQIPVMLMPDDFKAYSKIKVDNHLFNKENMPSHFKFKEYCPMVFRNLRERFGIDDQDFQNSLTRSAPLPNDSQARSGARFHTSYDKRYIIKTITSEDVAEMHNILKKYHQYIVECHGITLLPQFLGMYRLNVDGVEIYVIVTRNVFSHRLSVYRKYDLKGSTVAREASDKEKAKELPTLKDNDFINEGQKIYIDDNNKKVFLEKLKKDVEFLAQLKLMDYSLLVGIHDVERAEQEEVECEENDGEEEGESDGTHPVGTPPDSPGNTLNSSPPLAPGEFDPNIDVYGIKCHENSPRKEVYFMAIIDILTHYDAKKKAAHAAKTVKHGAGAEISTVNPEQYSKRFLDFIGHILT
Procedure: Dilution series of the compounds were prepared in DMSO at 100 times the final assay concentration (n1=n0/3 in 10 points). The compounds were further diluted to three times the assay concentration in assay buffer (20 mM MOPS pH 7.2, 25 mM magnesium chloride, 0.005% Tween 20). 6 μL of the diluted compounds were added to a 384 well assay plate followed by 9 μL of a mix consisting of 4 nM PIP4K2A (full length protein, SignalChem) and 100 μM PI(5)P diC8 (Tebu-Bio). Enzyme and compounds were pre-incubated at room temperature for 15 minutes.
Then 3 μL of a solution containing 60 μM ATP (Promega) in assay buffer was added to the wells containing compound and enzyme and mixing was performed by pipetting several times. The reaction was incubated at room temperature for 1 h. Then 18 μL of ADP-Glo™ Reagent (Promega) was added to stop the kinase reaction and deplete the unconsumed ATP, mixing was performed by pipetting several times. The plate was incubated at room temperature for 40 minutes before addition of 36 μL of Kinase Detection Reagent (Promega) to convert ADP to ATP and introduce luciferase and luciferin to detect ATP. The reaction was incubated at room temperature for 40 minutes before the luminescence was measured in a in a Victor 3V 1420 multilabel counter (Perkin Elmer).
Percent inhibition of the compounds as compared to dimethyl sulfoxide treated control samples was calculated. Compound concentration versus percent inhibition were fitted to generate IC50 values.

PIP4K2B = target: T2, PIP4K2B (Homo sapiens, UniProt P78356); assay: Trans-FI P kinase assay PIP4K2B (PIP4KtypeIIB inhibition assay); type: biochemical; settings: compounds listed under IC50 bin headings; 100 uM GTP; read-out: Trans-FI P kinase assays: PIP4K2B IC50
T2 construct: made in house; host or cells: E. coli
T2 sequence (P78356 1-416): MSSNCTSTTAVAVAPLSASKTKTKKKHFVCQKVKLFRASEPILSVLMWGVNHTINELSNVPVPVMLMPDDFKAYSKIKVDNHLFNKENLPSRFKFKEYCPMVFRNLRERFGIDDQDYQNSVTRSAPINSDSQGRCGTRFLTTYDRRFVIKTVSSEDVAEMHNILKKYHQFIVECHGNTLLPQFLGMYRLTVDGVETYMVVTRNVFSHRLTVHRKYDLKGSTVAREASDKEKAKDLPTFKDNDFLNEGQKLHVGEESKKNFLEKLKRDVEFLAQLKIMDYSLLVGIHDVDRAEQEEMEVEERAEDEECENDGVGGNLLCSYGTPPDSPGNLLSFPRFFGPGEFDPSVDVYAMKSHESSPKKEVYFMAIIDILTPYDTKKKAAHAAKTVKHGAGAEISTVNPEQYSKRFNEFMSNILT
Source text: GST tagged PIP4KtypeIIA and B enzymes were overexpressed in E. Coli and purified to >80% homogeneity. Phosphatidyl inositol-5-phosphate (PI5P, Cat. #850152, Avanti Polar Lipids Inc.) was used as the lipid substrate and phosphatidyl ethanolamine (DOPE 18:1, Cat. #850725, Avanti Polar Lipids Inc.) was used as the carrier lipid for assays. Ultrapure ATP and GTP was purchased from Bellbrooke Labs. ADP Glo reagents were obtained from Promega. Transcreener FI reagent was obtained from Bellbrooke labs.
GST-tagged PIP4KtypeIIB (3.4 uL, 2.77 mg/mL) was diluted to 5 mL using HNE buffer to yield 5× enzyme stock (25 nM)
Lipid Preparation: In a 10 mL pyrex glass vial, 1 ug of PI5P and 1 ug of DOPE were suspended in 2.5 mL of HEPES buffer mix and 2.5 mL of H:E buffer. The contents were mixed and sonicated for 3 min to yield a translucent lipid stock.
Compound Preparation: Compounds were stored as 5 mM stocks in neat DMSO as room temperature in glass vials. 5 mM stocks were diluted to 2 mM and then serially diluted (3×) in neat DMSO in 96 well polypropylene plates. From the serially diluted stocks, 3 uL was delivered into 250 uL of 25% DMSO (in water) to generate 5× compound stocks. Typically, the highest compound conc. was 24 uM.
The assay volume was kept at 25 uL. To each well of the reaction plate, 10 uL of lipid stock (1:1 ratio PI5P:DOPE) was delivered. This was followed by the addition of 5 uL of compound in 25% DMSO. Then, to each well, 5 uL of 25 nM (5×) typeIIB enzyme was delivered. The contents were mixed well and incubated for 1 h at 27 C. After 1 h, reaction was initiated by adding 5 uL of 500 uM GTP and the contents were mixed well with a multi-channel pipetteman. The final concentration of the reagents are as follows: 50 mM HEPES, pH 7.3, 10 mM MgCl2, 20 mM NaCl, 0.01% v/v triton-X100, 5% DMSO, 100 uM GTP, 80 uM (2 ug) PI5P, 2 ug DOPE, and 5 nM PIP4KIIB Typically, the highest conc. of compounds was 4.8 uM and the lowest conc. was 0.
After 2 h, the reaction was quenched by adding 25 uL of transcreener FI reagent. The contents were incubated at RT for 1 h and the Fluorescence (Ex: 584 Em: 623) was read using Molecular Devices Paradigm plate reader. […] The blanks were averaged and subtracted from all other wells. Using a calibration curve, RFU was converted to uM GDP (product). IC50 was calculated by plotting the residual activity (expressed as % No inhibitor control) vs. log [Inh. conc.]

| SMILES | IC50 (PIP4K 2A) | IC50 (PIP4K2B) |
| --- | --- | --- |
| CC1Oc2cc(N3CCCC3=O)ccc2-c2cnc(Nc3cncc(NC(=O)c4cccc5c4COB5O)c3)cc21 (stereo not drawn) [Example 118, 1-hydroxy-N-(5-((5-methyl-8-(2-oxopyrrolidin-1-yl)-5H-chromeno[4,3-c]pyridin-3-yl)amino)pyridin-3-yl)-1,3-dihydrobenzo[c][1,2]oxaborole-4-carboxamide] | 1 to 10 nM | 10 to 100 nM |
| CC1Oc2cc(N3CCCC3=O)c(F)cc2-c2cnc(Nc3cnc4c(c3)N3C(=O)[C@](C)(O)C[C@H]3CO4)cc21 (stereo partly drawn) [Example 204, (6aS,8R)-2-((9-fluoro-5-methyl-8-(2-oxopyrrolidin-1-yl)-5H-chromeno[4,3-c]pyridin-3-yl)amino)-8-hydroxy-8-methyl-6,6a,7,8-tetrahydro-9H-pyrido[2,3-b]pyrrolo[1,2-d][1,4]oxazin-9-one] | 1 to 10 nM | 10 to 100 nM |
| CC1Oc2cc(N3CCCC3=O)c(F)cc2-c2cnc(Nc3cnc4c(c3)OCCO4)cc21 (stereo not drawn) [Example 166, 1-(3-((2,3-dihydro-[1,4]dioxino[2,3-b]pyridin-7-yl)amino)-9-fluoro-5-methyl-5H-chromeno[4,3-c]pyridin-8-yl)pyrrolidin-2-one] | 1 to 10 nM | 10 to 100 nM |
| CC(CC(=O)Nc1cncc(Nc2cc3c(cn2)-c2ccc(N4CCCC4=O)cc2OC3C)c1)c1ccccc1 (stereo not drawn) [Example 132, N-(5-((5-methyl-8-(2-oxopyrrolidin-1-yl)-5H-chromeno[4,3-c]pyridin-3-yl)amino)pyridin-3-yl)-3-phenylbutanamide] | 1 to 10 nM | 10 to 100 nM |
| CC1Oc2cc(N3CCCC3=O)ccc2-c2cnc(Nc3cncc(NC(=O)c4cccc5c4OCO5)c3)cc21 (stereo not drawn) [Example 137, N-(5-((5-methyl-8-(2-oxopyrrolidin-1-yl)-5H-chromeno[4,3-c]pyridin-3-yl)amino)pyridin-3-yl)benzo[d][1,3]dioxole-4-carboxamide] | 1 to 10 nM | 10 to 100 nM |
| CC1Oc2cc(N3CCCC3=O)ccc2-c2cnc(Nc3cncc(NC(=O)c4ccncc4)c3)cc21 (stereo not drawn) [Example 114, N-(5-((5-methyl-8-(2-oxopyrrolidin-1-yl)-5H-chromeno[4,3-c]pyridin-3-yl)amino)pyridin-3-yl)isonicotinamide] | 1 to 10 nM | 10 to 100 nM |
| COCCC(=O)N1CCN(c2cncc(Nc3cc4c(cn3)-c3cc(F)c(N5CCCC5=O)cc3OC4C)c2)CC1 (stereo not drawn) [Example 172, 1-(9-fluoro-3-((5-(4-(3-methoxypropanoyl)piperazin-1-yl)pyridin-3-yl)amino)-5-methyl-5H-chromeno[4,3-c]pyridin-8-yl)pyrrolidin-2-one] | 1 to 10 nM | 10 to 100 nM |
| CC1(C)Oc2cc(N3CCCC3=O)c(F)cc2-c2cnc(Nc3cnc4c(c3)N3C(=O)CC[C@@H]3CO4)cc21 [Example 184, (R)-2-((9-fluoro-5,5-dimethyl-8-(2-oxopyrrolidin-1-yl)-5H-chromeno[4,3-c]pyridin-3-yl)amino)-6,6a,7,8-tetrahydro-9H-pyrido[2,3-b]pyrrolo[1,2-d][1,4]oxazin-9-one] | ≤ 1 nM | 1 to 10 nM |
| CC1Oc2cc(N3CCCC3=O)ccc2-c2cnc(Nc3cncc(NC(=O)CCc4ccccc4)c3)cc21 (stereo not drawn) [Example 110, N-(5-((5-methyl-8-(2-oxopyrrolidin-1-yl)-5H-chromeno[4,3-c]pyridin-3-yl)amino)pyridin-3-yl)-3-phenylpropanamide] | 1 to 10 nM | 10 to 100 nM |
| CC1Oc2cc(N3CCCC3=O)ccc2-c2cnc(Nc3cncc(NC(=O)c4cn5ccccc5n4)c3)cc21 (stereo not drawn) [Example 139, N-(5-((5-methyl-8-(2-oxopyrrolidin-1-yl)-5H-chromeno[4,3-c]pyridin-3-yl)amino)pyridin-3-yl)imidazo[1,2-a]pyridine-2-carboxamide] | 1 to 10 nM | 10 to 100 nM |
| CC1Oc2cc(N3CCCC3=O)ccc2-c2cnc(Nc3cncc(NC(=O)Cc4ccccc4)c3)cc21 (stereo not drawn) [Example 107, N-(5-((5-methyl-8-(2-oxopyrrolidin-1-yl)-5H-chromeno[4,3-c]pyridin-3-yl)amino)pyridin-3-yl)-2-phenylacetamide] | 1 to 10 nM | 10 to 100 nM |
| CN(C)C/C=C/C(=O)Nc1ccc(C(=O)Nc2cncc(Nc3cc4c(cn3)-c3ccc(N5CCCC5=O)cc3OC4(C)C)c2)cc1 [Example 198, (E)-N-(5-((5,5-dimethyl-8-(2-oxopyrrolidin-1-yl)-5H-chromeno[4,3-c]pyridin-3-yl)amino)pyridin-3-yl)-4-(4-(dimethylamino)but-2-enamido)benzamide] | 1 to 10 nM | 1 to 10 nM |
| CC1Oc2cc(N3CCCC3=O)ccc2-c2cnc(Nc3cncc(NC(=O)CCc4cccc(NC(=O)CCCN(C)C)c4)c3)cc21 (stereo not drawn) [Example 177, 4-(dimethylamino)-N-(3-(3-((5-((5-methyl-8-(2-oxopyrrolidin-1-yl)-5H-chromeno[4,3-c]pyridin-3-yl)amino)pyridin-3-yl)amino)-3-oxopropyl)phenyl)butanamide] | 1 to 10 nM | 1 to 10 nM |
| CC1Oc2cc(N3CCCC3=O)ccc2-c2cnc(Nc3cncc(NC(=O)CCC(=O)O)c3)cc21 (stereo not drawn) [Example 105, 4-((5-((5-methyl-8-(2-oxopyrrolidin-1-yl)-5H-chromeno[4,3-c]pyridin-3-yl)amino)pyridin-3-yl)amino)-4-oxobutanoic acid] | 1 to 10 nM | 10 to 100 nM |
| CC1Oc2cc(N3CCCC3=O)c(F)cc2-c2cnc(Nc3cncc(N4CCNC4=O)c3)cc21 (stereo not drawn) [Example 151, 1-(5-((9-fluoro-5-methyl-8-(2-oxopyrrolidin-1-yl)-5H-chromeno[4,3-c]pyridin-3-yl)amino)pyridin-3-yl)imidazolidin-2-one] | 1 to 10 nM | 10 to 100 nM |
